# Read-outs that look alike come from different tables or passages of the source.
# Test system: participants with idiopathic pulmonary fibrosis (IPF)
# [1] = 320 mg (n = 22), treatment up to 40 weeks
# [2] = All 40-160 mg (n = 67), 12 weeks
# [3] = All 40-320 mg (n = 88), 12 weeks
# [4] = pooled 40-160 mg, With Background SoC (n = 55), 12 weeks
# [5] = pooled 40-160 mg, With Background SoC nintedanib or pirfenidone (n = 55), 12 weeks
# [6] = pooled 40-160 mg, Without Background SoC (n = 12), 12 weeks
# [7] = single participant, 320 mg, after week 12, not drug related, resolved
# [8] = single participant, 320 mg, after week 12, not drug related, resolved with sequalae
# From the text: The groups were stratified for the use of nintedanib or pirfenidone. The groups were screened 28 days before the Day 1 of the study. At Day 1, baseline values were collected. During week 12, the subjects received the last dose, and the study was ended at week 14. Primary and secondary endpoints of the study included safety, tolerability, and PK. Exploratory endpoints included change in FVC over 12 weeks; High Resolution CT-based Quantitative Lung Fibrosis (QLF) imaging; patient-reported outcome (PRO): VAS-cough severity; and effect on selected biomarkers.
# The groups were stratified for the use of nintedanib or pirfenidone. The screening was done 28 days before Day 1 and the baseline was measured on Day 1. The last dose was on Week 12, and the end of study was on Week 14. The primary and secondary endpoints include safety, tolerability, and PK. Exploratory Endpoints include change in Forced Vital Capacity (FVC) over 12 weeks, High Resolution CT-based Quantitative Lung Fibrosis (QLF) imaging, and effect on selected biomarkers.
# The groups were stratified for the use of nintedanib or pirfenidone. The groups were screened 28 days before the Day 1 of the study. At Day 1, baseline values were collected. The study was continued up to Week 48. The treatment duration per protocol is at least 24 weeks and at most 48 weeks. For the study, the primary and secondary endpoints evaluated in the trial were safety, tolerability, and pharmacokinetics. The exploratory endpoints evaluated included the change in FVC over 12 and 24 weeks; high Resolution CT-based Quantitative Lung Fibrosis (QLF) imaging; patient-reported cough severity; and effect on selected biomarkers.
structure (smiles),measurement,setting,value
"COCCN(CCCCc1ccc2c(n1)NCCC2)CC[C@H](Nc1ncnc2ccccc12)C(=O)O [Compound 5, (S)-4-((2-methoxyethyl) (4-(5,6,7,8-tetrahydro-1,8-naphthyridin-2-yl)butyl)amino)-2-(quinazolin-4-ylamino) butanoic acid]","TEAE Dyspnoea, participants reporting",[1],5 n
same,TEAE Idiopathic Pulmonary Fibrosis related to study drug,[1],0 n
same,"TEAE Idiopathic Pulmonary Fibrosis, % of participants",[1],(18.2) %
same,"TEAE Idiopathic Pulmonary Fibrosis, participants reporting",[1],4 n
same,TEAE Leading to Death,[1],1 n
same,"TEAE Leading to Death, % of participants",[1],(4.5) ^3%
same,TEAE Leading to Early Termination from Study,[1],3 n
same,"TEAE Leading to Early Termination from Study, % of participants",[1],"(13.6) ^2,3,4%"
same,TEAE Leading to Interruption of Study Drug,[1],4 n
same,"TEAE Leading to Interruption of Study Drug, % of participants",[1],(18.2) ^2%
same,TEAE Leading to Withdrawal of Study Drug,[1],3 n
same,"TEAE Leading to Withdrawal of Study Drug, % of participants",[1],"(13.6) ^2,3,4%"
same,TEAE Upper respiratory tract infection related to study drug,[1],0 n
same,"TEAE Upper respiratory tract infection, % of participants",[1],(9.1) %
same,"TEAE Upper respiratory tract infection, participants reporting",[1],2 n
same,TEAE of CTCAE Grade 3 or Higher,[1],5 n
same,"TEAE of CTCAE Grade 3 or Higher related to study drug, % of participants",[1],(4.5) ^1%
same,"TEAE of CTCAE Grade 3 or Higher, % of participants",[1],(22.7) %
same,TEAE related to study drug,[1],5 n
same,"TEAE related to study drug, % of participants",[1],(22.7) %
same,"TEAE, % of participants",[1],(90.9) %
same,"TEAE, participants reporting",[1],20 n
same,TEAE of CTCAE Grade 3 or Higher related to study drug,"320 mg (n = 22), treatment up to 40 weeks, blood pressure increased",1 n
same,Safety and tolerability,"320 mg, long-term treatment up to 40 weeks",well tolerated
same,"Any AEs, % of participants",[2],(68.7) %
same,"Any AEs, participants reporting",[2],46 n
same,Serious TEAE,[2],3 n
same,Serious TEAE related to study drug,[2],0 n
same,"Serious TEAE, % of participants",[2],(4.5) %
same,"TEAE Diarrhea (any causality), % of participants",[2],(17.9) %
same,"TEAE Diarrhea (any causality), participants reporting",[2],12 n
same,"TEAE Diarrhea related to study drug, % of participants",[2],(11.9) %
same,"TEAE Diarrhea related to study drug, participants reporting",[2],8 n
same,TEAE Leading to Death,[2],0 n
same,TEAE Leading to Early Termination from Study,[2],0 n
same,TEAE Leading to Interruption of Study Drug,[2],1 n
same,"TEAE Leading to Interruption of Study Drug, % of participants",[2],(1.5) %
same,TEAE Leading to Withdrawal of Study Drug,[2],0 n
same,TEAE of CTCAE Grade 3 or Higher,[2],4 n
same,TEAE of CTCAE Grade 3 or Higher related to study drug,[2],1 n
same,"TEAE of CTCAE Grade 3 or Higher related to study drug, % of participants",[2],(1.5) %
same,"TEAE of CTCAE Grade 3 or Higher, % of participants",[2],(6.0) %
same,TEAE related to study drug,[2],15 n
same,"TEAE related to study drug, % of participants",[2],(22.4) %
same,"TEAE, % of participants",[2],(67.2) %
same,"TEAE, participants reporting",[2],45 n
same,"Any AEs, % of participants",[3],72.7%
same,"Any AEs, participants reporting",[3],64 n
same,Serious TEAE,[3],4 n
same,Serious TEAE related to study drug,[3],0 n
same,"Serious TEAE, % of participants",[3],4.5%
same,"TEAE Diarrhea (any causality), % of participants",[3],17.0%
same,"TEAE Diarrhea (any causality), participants reporting",[3],15 n
same,"TEAE Diarrhea related to study drug, % of participants",[3],11.4%
same,"TEAE Diarrhea related to study drug, participants reporting",[3],10 n
same,TEAE Leading to Death,[3],1 n
same,"TEAE Leading to Death, % of participants",[3],1.1%
same,TEAE Leading to Early Termination from Study,[3],3 n
same,"TEAE Leading to Early Termination from Study, % of participants",[3],3.4%
same,TEAE Leading to Interruption of Study Drug,[3],2 n
same,"TEAE Leading to Interruption of Study Drug, % of participants",[3],2.3%
same,TEAE Leading to Withdrawal of Study Drug,[3],3 n
same,"TEAE Leading to Withdrawal of Study Drug, % of participants",[3],3.4%
same,TEAE of CTCAE Grade 3 or Higher,[3],6 n
same,TEAE of CTCAE Grade 3 or Higher related to study drug,[3],1 n
same,"TEAE of CTCAE Grade 3 or Higher related to study drug, % of participants",[3],1.1%
same,"TEAE of CTCAE Grade 3 or Higher, % of participants",[3],6.8%
same,TEAE related to study drug,[3],19 n
same,"TEAE related to study drug, % of participants",[3],21.6%
same,"TEAE, % of participants",[3],70.5%
same,"TEAE, participants reporting",[3],62 n
same,SAE Acute respiratory failure: Standard Toxicity Grade,"one participant, 40 mg, not treatment related, dose not changed, recovered/resolved",Grade 3
same,SAE Idiopathic pulmonary fibrosis (acute exacerbation): Standard Toxicity Grade,"one participant, 160 mg, not treatment related, about 2 weeks after 12-week treatment, not recovered/not resolved",Grade 3
same,SAE Atrial flutter: Standard Toxicity Grade,"one participant, 160 mg, not treatment related, underlying disease, recovered/resolved",Grade 3
same,SAE Acute respiratory failure: Standard Toxicity Grade,"one participant, 320 mg, GAP Stage III, after elective atrioventricular node ablation, not treatment related, drug withdrawn, fatal",Grade 5
same,"AE leading to withdrawal, Diarrhea: Standard Toxicity Grade","one participant, 320 mg, receiving nintedanib, recovered/resolved",Grade 1
same,"Any AEs, % of participants",[4],(69.1) %
same,"Serious TEAE, % of participants",[4],(5.5) %
same,"TEAE of CTCAE Grade 3 or Higher related to study drug, % of participants",[4],(1.8) %
same,"TEAE of CTCAE Grade 3 or Higher, % of participants",[4],(7.3) %
same,"TEAE related to study drug, % of participants",[4],(23.6) %
same,"TEAE, % of participants",[4],(67.3) %
same,"Any AEs, participants reporting",[5],38 n
same,Serious TEAE,[5],3 n
same,Serious TEAE related to study drug,[5],0 n
same,TEAE Leading to Death,[5],0 n
same,TEAE Leading to Early Termination from Study,[5],0 n
same,TEAE Leading to Interruption of Study Drug,[5],0 n
same,TEAE Leading to Withdrawal of Study Drug,[5],0 n
same,TEAE of CTCAE Grade 3 or Higher,[5],4 n
same,TEAE of CTCAE Grade 3 or Higher related to study drug,[5],1 n
same,TEAE related to study drug,[5],13 n
same,"TEAE, participants reporting",[5],37 n
same,"Any AEs, % of participants",[6],(66.7) %
same,"Any AEs, participants reporting",[6],8 n
same,Serious TEAE,[6],0 n
same,Serious TEAE related to study drug,[6],0 n
same,TEAE Leading to Death,[6],0 n
same,TEAE Leading to Early Termination from Study,[6],0 n
same,TEAE Leading to Interruption of Study Drug,[6],1 n
same,"TEAE Leading to Interruption of Study Drug, % of participants",[6],(8.3) %
same,TEAE Leading to Withdrawal of Study Drug,[6],0 n
same,TEAE of CTCAE Grade 3 or Higher,[6],0 n
same,TEAE of CTCAE Grade 3 or Higher related to study drug,[6],0 n
same,TEAE related to study drug,[6],2 n
same,"TEAE related to study drug, % of participants",[6],(16.7) %
same,"TEAE, % of participants",[6],(66.7) %
same,"TEAE, participants reporting",[6],8 n
same,SAE Pneumonia: Standard Toxicity Grade,"same participant, 40 mg, not treatment related, removed carpet from home without a mask, recovered/resolved",Grade 2
same,SAE Iron Deficiency anemia: Standard Toxicity Grade,"single participant, 320 mg, Week 29, not drug related, resolved with sequalae",Grade 3
same,SAE Ileus: Standard Toxicity Grade,"single participant, 320 mg, after week 12 (Week 21 hospitalization), not drug related, resolved",Grade 3
same,SAE Acute Kidney Injury: Standard Toxicity Grade,[7],Grade 2
same,SAE Gastritis: Standard Toxicity Grade,[7],Grade 2
same,SAE Hyperlactatemia: Standard Toxicity Grade,[7],Grade 2
same,SAE Acute Left Heart Failure: Standard Toxicity Grade,[8],Grade 3
same,SAE Gastric Ulcer: Standard Toxicity Grade,[8],Grade 3
same,SAE Haemorrhagic arteriovenous malformation: Standard Toxicity Grade,[8],Grade 3
